In brackets after ≈: the same amount, converted by molar mass.
Tested on: Mycobacterium tuberculosis
Assay: Antimycobacterial activity against multi drug-resistant Mycobacterium tuberculosis
Format: functional

Cc1ccc(C2Cc3[nH]c4ccc(Cl)cc4c3S2)cc1 (stereo not given)
MIC: 6.25 µg/mL (≈ 20.8 µM)

CC[C@@H](CO)NCCN[C@@H](CC)CO [ETHAMBUTOL]
MIC: 12.5 µg/mL (≈ 61.2 µM)

NC(=O)c1cnccn1 [PYRAZINAMIDE]
MIC: 50 µg/mL (≈ 406 µM)

NNC(=O)c1ccncc1 [ISONIAZID]
MIC: 1.56 µg/mL (≈ 11.4 µM)

Clc1ccc(C2Cc3[nH]c4ccc(Cl)cc4c3S2)c(Cl)c1 (stereo not given)
MIC: 0.4 µg/mL (≈ 1.13 µM)

CC(C)c1ccc(C2Cc3[nH]c4ccccc4c3S2)cc1 (stereo not given)
MIC: 0.4 µg/mL (≈ 1.36 µM)

Brc1ccccc1C1Cc2[nH]c3ccccc3c2S1 (stereo not given)
MIC: 3.13 µg/mL (≈ 9.48 µM)

Fc1ccc2[nH]c3c(c2c1)SC(c1ccc(Cl)cc1Cl)C3 (stereo not given)
MIC: 0.4 µg/mL (≈ 1.18 µM)

Fc1ccc(C2Cc3[nH]c4ccc(Cl)cc4c3S2)cc1 (stereo not given)
MIC: 0.78 µg/mL (≈ 2.57 µM)

CC(C)c1ccc(C2Cc3[nH]c4ccc(Cl)cc4c3S2)cc1 (stereo not given)
MIC: 0.78 µg/mL (≈ 2.38 µM)

Clc1ccc2[nH]c3c(c2c1)SC(c1ccccc1Cl)C3 (stereo not given)
MIC: 1.56 µg/mL (≈ 4.87 µM)

CC(C)c1ccc(C2Cc3[nH]c4ccc(F)cc4c3S2)cc1 (stereo not given)
MIC: 0.4 µg/mL (≈ 1.28 µM)

Fc1ccc2[nH]c3c(c2c1)SC(c1ccccc1Cl)C3 (stereo not given)
MIC: 1.56 µg/mL (≈ 5.14 µM)

CO[C@H]1/C=C/O[C@@]2(C)Oc3c(C)c(O)c4c(O)c(c(/C=N/N5CCN(C)CC5)c(O)c4c3C2=O)NC(=O)/C(C)=C\C=C\[C@H](C)[C@H](O)[C@@H](C)[C@@H](O)[C@@H](C)[C@H](OC(C)=O)[C@@H]1C [RIFAMPIN]
MIC: 3.13 µg/mL (≈ 3.8 µM)

Cc1ccc(C2Cc3[nH]c4ccc(F)cc4c3S2)cc1 (stereo not given)
MIC: 1.56 µg/mL (≈ 5.51 µM)

Fc1ccc2[nH]c3c(c2c1)SC(c1ccc(Cl)cc1)C3 (stereo not given)
MIC: 1.56 µg/mL (≈ 5.14 µM)

Fc1ccc2[nH]c3c(c2c1)SC(c1ccccc1)C3 (stereo not given)
MIC: 12.5 µg/mL (≈ 46.4 µM)

Cc1ccc(C2Cc3[nH]c4ccccc4c3S2)cc1 (stereo not given)
MIC: 12.5 µg/mL (≈ 47.1 µM)

Clc1ccc(C2Cc3[nH]c4ccccc4c3S2)c(Cl)c1 (stereo not given)
MIC: 0.78 µg/mL (≈ 2.44 µM)

O=[N+]([O-])c1cccc(C2Cc3[nH]c4ccccc4c3S2)c1 (stereo not given)
MIC: 0.78 µg/mL (≈ 2.63 µM)

From ChEMBL document CHEMBL1151911, “A microwave-assisted facile regioselective Fischer indole synthesis and antitubercular evaluation of novel 2-aryl-3,4-dihydro-2H-thieno[3,2-b]indoles” (2009)
